Target: T1, human V1a receptor (Homo sapiens, UniProt P37288)
T1 construct: expressed in transfected cells; host or cells: HEK293 cells, transiently transfected; cell membranes
Experiment: human V1a receptor binding studies (3H-Vasopressin, SPA beads)
Details: membranes of HEK293 cells transiently transfected with human V1a receptor, Ki by Cheng-Prussoff from IC50, read-out: pKi hV1a (converted)
In short: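 Membranes from transiently transfected HEK293 cells expressing cloned human V1a receptor, on yttrium silicate SPA beads, competed against 4 nM 3H-vasopressin (added stock concentration) in Tris buffer with NaCl, KCl, CaCl2, MgCl2 for 1 h at room temperature. Nonspecific binding with cold vasopressin; IC50 by nonlinear fit, Ki via Cheng-Prusoff.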

T1 sequence (P37288 whole entry): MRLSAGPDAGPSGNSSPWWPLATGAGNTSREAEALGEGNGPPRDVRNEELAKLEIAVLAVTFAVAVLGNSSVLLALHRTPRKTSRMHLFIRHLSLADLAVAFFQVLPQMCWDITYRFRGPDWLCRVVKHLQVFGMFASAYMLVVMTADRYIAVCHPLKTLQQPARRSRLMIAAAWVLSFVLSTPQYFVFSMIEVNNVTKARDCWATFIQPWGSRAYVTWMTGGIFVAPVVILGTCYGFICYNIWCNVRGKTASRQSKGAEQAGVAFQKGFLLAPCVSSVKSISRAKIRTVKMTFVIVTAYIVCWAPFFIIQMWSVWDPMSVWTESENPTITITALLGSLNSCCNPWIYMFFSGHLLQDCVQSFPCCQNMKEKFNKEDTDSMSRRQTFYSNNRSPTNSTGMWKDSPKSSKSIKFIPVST

Question: For `CCCC1OC(N2CCC3(CC2)OCc2ccccc23)=NC1=O` (stereo not shown) [Example 1, 5-Propyl-2-(1′H,3H-spiro[2-benzofuran-1,4′-piperidin]-1′-yl)-1,3-oxazol-4(5H)-one], which Ki is on record?
Answer: 0.0794 µM

Question: For `CCCCC1OC(N2CCC3(CC2)OCc2ccccc23)=NC1=O` (stereo not shown) [Example 2, 5-Butyl-2-(1′H,3H-spiro[2-benzofuran-1,4′-piperidin]-1′-yl)-1,3-oxazol-4(5H)-one], which Ki is on record?
Answer: 0.00501 µM

Question: For `CC(C)CC1OC(N2CCC3(CC2)OCc2ccccc23)=NC1=O` (stereo not shown) [Example 7, 5-(2-Methylpropyl)-2-(1′H,3H-spiro[2-benzofuran-1,4′-piperidin]-1′-yl)-1,3-oxazol-4(5H)-one], which Ki is on record?
Answer: 0.02 µM

Question: `C=CCC1OC(N2CCC3(CC2)OCc2ccccc23)=NC1=O` (stereo not shown) [Example 8, 5-(Prop-2-en-1-yl)-2-(1′H,3H-spiro[2-benzofuran-1,4′-piperidin]-1′-yl)-1,3-oxazol-4(5H)-one] was tested. Which Ki did it give?
Answer: 0.158 µM

Question: With `C=C(C)CC1OC(N2CCC3(CC2)OCc2ccccc23)=NC1=O` (stereo not shown) [Example 9, 5-(2-Methylprop-2-en-1-yl)-2-(1′H,3H-spiro[2-benzofuran-1,4′-piperidin]-1′-yl)-1,3-oxazol-4(5H)-one] as the molecule, how does the Ki read?
Answer: 0.002 µM

Question: How did the Ki turn out when `C=C(CC1OC(N2CCC3(CC2)OCc2ccccc23)=NC1=O)C(F)(F)F` (stereo not shown) [Example 10, 2-(1′H,3H-Spiro[2-benzofuran-1,4′-piperidin]-1′-yl)-5-[2-(trifluoromethyl)prop-2-en-1-yl]-1,3-oxazol-4(5H)-one] was run?
Answer: 0.00398 µM

Question: `CC#CCC1OC(N2CCC3(CC2)OCc2ccccc23)=NC1=O` (stereo not shown) [Example 11, 5-(But-2-yn-1-yl)-2-(1′H,3H-spiro[2-benzofuran-1,4′-piperidin]-1′-yl)-1,3-oxazol-4(5H)-one] was tested. Which Ki did it give?
Answer: 0.0501 µM

Question: `O=C1N=C(N2CCC3(CC2)OCc2ccccc23)OC1c1ccccc1` (stereo not shown) [Example 12, 5-Phenyl-2-(1′H,3H-spiro[2-benzofuran-1,4′-piperidin]-1′-yl)-1,3-oxazol-4(5H)-one] was tested. Which Ki did it give?
Answer: 0.316 µM

Question: `O=C1N=C(N2CCC3(CC2)OCc2ccccc23)OC1Cc1ccccc1` (stereo not shown) [Example 17, 5-Benzyl-2-(1′H,3H-spiro[2-benzofuran-1,4′-piperidin]-1′-yl)-1,3-oxazol-4(5H)-one] was tested. Which Ki did it give?
Answer: 0.00398 µM

Question: For `O=C1N=C(N2CCC3(CC2)OCc2ccccc23)O[C@@H]1Cc1ccccc1` [Example 18, (+)-(5R)-5-Benzyl-2-(1′H,3H-spiro[2-benzofuran-1,4′-piperidin]-1′-yl)-1,3-oxazol-4(5H)-one], which Ki is on record?
Answer: 0.00158 µM

Question: `O=C1N=C(N2CCC3(CC2)OCc2ccccc23)O[C@H]1Cc1ccccc1` [Example 19, (−)-(5S)-5-Benzyl-2-(1′H,3H-spiro[2-benzofuran-1,4′-piperidin]-1′-yl)-1,3-oxazol-4(5H)-one] was tested. Which Ki did it give?
Answer: 0.0251 µM

Question: Which Ki does the source give for `CC1OC2(CCN(C3=NC(=O)C(Cc4ccccc4)O3)CC2)c2ccccc21` (stereo not shown) [Example 22, 5-Benzyl-2-(3-methyl-1′H,3H-spiro[2-benzofuran-1,4′-piperidin]-1′-yl)-1,3-oxazol-4(5H)-one] here?
Answer: 0.00126 µM

Question: `O=C1N=C(N2CCC3(CC2)OCc2cccc(F)c23)OC1Cc1ccccc1` (stereo not shown) [Example 23, 5-Benzyl-2-(7-fluoro-1′H,3H-spiro[2-benzofuran-1,4′-piperidin]-1′-yl)-1,3-oxazol-4(5H)-one] was tested. Which Ki did it give?
Answer: 0.00251 µM

Question: Which Ki does the source give for `O=C1N=C(N2CCC3(CC2)OCc2c(F)cccc23)OC1Cc1ccccc1` (stereo not shown) [Example 24, 5-Benzyl-2-(4-fluoro-1′H,3H-spiro[2-benzofuran-1,4′-piperidin]-1′-yl)-1,3-oxazol-4(5H)-one] here?
Answer: 0.00631 µM

Question: With `O=C1N=C(N2CCC3(CC2)OCc2ccc(F)cc23)OC1Cc1ccccc1` (stereo not shown) [Example 25, 5-Benzyl-2-(6-fluoro-1′H,3H-spiro[2-benzofuran-1,4′-piperidin]-1′-yl)-1,3-oxazol-4(5H)-one] as the molecule, how does the Ki read?
Answer: 0.00631 µM

Question: How did the Ki turn out when `CC1(C)OC2(CCN(C3=NC(=O)C(Cc4ccccc4)O3)CC2)c2ccccc21` (stereo not shown) [Example 26, 5-Benzyl-2-(3,3-dimethyl-1′H,3H-spiro[2-benzofuran-1,4′-piperidin]-1′-yl)-1,3-oxazol-4(5H)-one] was run?
Answer: 0.000631 µM

Question: With `O=C1OC2(CCN(C3=NC(=O)C(Cc4ccccc4)O3)CC2)c2ccc(F)cc21` (stereo not shown) [Example 27, 1′-(5-Benzyl-4-oxo-4,5-dihydro-1,3-oxazol-2-yl)-5-fluoro-3H-spiro[2-benzofuran-1,4′-piperidin]-3-one] as the molecule, how does the Ki read?
Answer: 0.0158 µM

Question: `O=C1N=C(N2CCC3(CC2)OCc2ncccc23)OC1Cc1ccccc1` (stereo not shown) [Example 28, 5-Benzyl-2-(1′H,7H-spiro[furo[3,4-b]pyridine-5,4′-piperidin]-1′-yl)-1,3-oxazol-4(5H)-one] was tested. Which Ki did it give?
Answer: 0.0794 µM

Question: With `O=C1N=C(N2CCC3(CC2)OCc2cccnc23)OC1Cc1ccccc1` (stereo not shown) [Example 29, 5-Benzyl-2-(1′H,5H-spiro[furo[3,4-b]pyridine-7,4′-piperidin]-1′-yl)-1,3-oxazol-4(5H)-one] as the molecule, how does the Ki read?
Answer: 0.01 µM

Question: How did the Ki turn out when `O=C1OC2(CCN(C3=NC(=O)C(Cc4ccccc4)O3)CC2)c2cccc(F)c21` (stereo not shown) [Example 30, 1′-(5-Benzyl-4-oxo-4,5-dihydro-1,3-oxazol-2-yl)-4-fluoro-3H-spiro[2-benzofuran-1,4′-piperidin]-3-one] was run?
Answer: 0.2 µM

Question: With `COc1ccc2c(c1)C(=O)OC21CCN(C2=NC(=O)C(Cc3ccccc3)O2)CC1` (stereo not shown) [Example 31, 1′-(5-Benzyl-4-oxo-4,5-dihydro-1,3-oxazol-2-yl)-5-methoxy-3H-spiro[2-benzofuran-1,4′-piperidin]-3-one] as the molecule, how does the Ki read?
Answer: 0.1 µM

Question: For `O=C1OC2(CCN(C3=NC(=O)C(Cc4ccccc4)O3)CC2)c2ccc(Br)cc21` (stereo not shown) [Example 32, 1′-(5-Benzyl-4-oxo-4,5-dihydro-1,3-oxazol-2-yl)-5-bromo-3H-spiro[2-benzofuran-1,4′-piperidin]-3-one], which Ki is on record?
Answer: 0.0631 µM

Question: Which Ki does the source give for `O=C1N=C(N2CCC3(CC2)SCc2ccccc23)OC1Cc1ccccc1` (stereo not shown) [Example 33, 5-Benzyl-2-(1′H,3H-spiro[2-benzothiophene-1,4′-piperidin]-1′-yl)-1,3-oxazol-4(5H)-one] here?
Answer: 0.0126 µM

Question: How did the Ki turn out when `O=C1N=C(N2CCC3(CC2)c2ccccc2CS3(=O)=O)OC1Cc1ccccc1` (stereo not shown) [Example 34, 5-Benzyl-2-(2,2-dioxido-1′H,3H-spiro[2-benzothiophene-1,4′-piperidin]-1′-yl)-1,3-oxazol-4(5H)-one] was run?
Answer: 0.01 µM

Question: `O=C1N=C(N2CCC3(CC2)OCc2ccccc23)OC1Cc1ccc(Cl)cc1` (stereo not shown) [Example 35, 5-(4-Chlorobenzyl)-2-(1′H,3H-spiro[2-benzofuran-1,4′-piperidin]-1′-yl)-1,3-oxazol-4(5H)-one] was tested. Which Ki did it give?
Answer: 0.002 µM

Question: With `O=C1N=C(N2CCC3(CC2)OCc2ccccc23)OC1C(O)c1ccc(Cl)cc1` (stereo not shown) [Example 40, 5-[(4-Chlorophenyl)(hydroxy)methyl]-2-(1′H,3H-spiro[2-benzofuran-1,4′-piperidin]-1′-yl)-1,3-oxazol-4(5H)-one] as the molecule, how does the Ki read?
Answer: 0.00398 µM

Question: How did the Ki turn out when `CC(=O)OC(c1ccc(Cl)cc1)C1OC(N2CCC3(CC2)OCc2ccccc23)=NC1=O` (stereo not shown) [Example 41, (4-Chlorophenyl)[4-oxo-2-(1′H,3H-spiro[2-benzofuran-1,4′-piperidin]-1′-yl)-4,5-dihydro-1,3-oxazol-5-yl]methyl acetate] was run?
Answer: 0.0316 µM

Question: Which Ki does the source give for `C=CCC1(CC(=C)F)OC(N2CCC3(CC2)OCc2ccccc23)=NC1=O` (stereo not shown) [Example 54, 5-Allyl-5-(2-fluoroallyl)-2-(3H-spiro[isobenzofuran-1,4′-piperidine]-1′-yl)oxazol-4(5H)-one] here?
Answer: 0.631 µM

Question: Which Ki does the source give for `CC#CCC1(CC#CC)OC(N2CCC3(CC2)OCc2ccccc23)=NC1=O` [Example 55, 5,5-Di(but-2-ynyl)-2-(3H-spiro[isobenzofuran-1,4′-piperidine]-1′-yl)oxazol-4(5H)-one] here?
Answer: 0.00501 µM

Question: With `C=C(C)CC1(CC(=C)C)OC(N2CCC3(CC2)OCc2ccccc23)=NC1=O` [Example 56, 5,5-bis(2-Methylprop-2-en-1-yl)-2-(1′H,3H-spiro[2-benzofuran-1,4′-piperidin]-1′-yl)-1,3-oxazol-4(5H)-one] as the molecule, how does the Ki read?
Answer: 0.0158 µM

Question: With `C#CCC1(CC=C)OC(N2CCC3(CC2)OCc2ccccc23)=NC1=O` (stereo not shown) [Example 57, 5-(Prop-2-en-1-yl)-5-(prop-2-yn-1-yl)-2-(1′H,3H-spiro[2-benzofuran-1,4′-piperidin]-1′-yl)-1,3-oxazol-4(5H)-one] as the molecule, how does the Ki read?
Answer: 0.0398 µM

Question: How did the Ki turn out when `C=CCC1(CC=C)OC(N2CCC3(CC2)OCc2ccccc23)=NC1=O` [Example 58, 5,5-Di(prop-2-en-1-yl)-2-(1′H,3H-spiro[2-benzofuran-1,4′-piperidin]-1′-yl)-1,3-oxazol-4(5H)-one] was run?
Answer: 0.0501 µM

Question: With `C=CCC1(CC(=C)C)OC(N2CCC3(CC2)OCc2ccccc23)=NC1=O` (stereo not shown) [Example 59, 5-Allyl-5-(2-methylallyl)-2-(1′H,3H-spiro[2-benzofuran-1,4′-piperidin]-1′-yl)-1,3-oxazol-4(5H)-one] as the molecule, how does the Ki read?
Answer: 0.01 µM

Question: `C=CCC1(CC(=C)C(F)(F)F)OC(N2CCC3(CC2)OCc2ccccc23)=NC1=O` (stereo not shown) [Example 60, 5-(Prop-2-en-1-yl)-2-(1′H,3H-spiro[2-benzofuran-1,4′-piperidin]-1′-yl)-5-[2-(trifluoromethyl)prop-2-en-1-yl]-1,3-oxazol-4(5H)-one] was tested. Which Ki did it give?
Answer: 0.0251 µM

Question: With `C=CCC1(CC(=C)C(=O)OCC)OC(N2CCC3(CC2)OCc2ccccc23)=NC1=O` (stereo not shown) [Example 61, Ethyl 2-{[4-oxo-5-(prop-2-en-1-yl)-2-(1′H,3H-spiro[2-benzofuran-1,4′-piperidin]-1′-yl)-4,5-dihydro-1,3-oxazol-5-yl]methyl}prop-2-enoate] as the molecule, how does the Ki read?
Answer: 0.794 µM

Question: How did the Ki turn out when `C#CCC1(CC(=C)C(=O)OCC)OC(N2CCC3(CC2)OCc2ccccc23)=NC1=O` (stereo not shown) [Example 62, Ethyl 2-((4-oxo-5-(prop-2-ynyl)-2-(3H-spiro[isobenzofuran-1,4′-piperidine]-1′-yl)-4,5-dihydrooxazol-5-yl)methyl)acrylate] was run?
Answer: 0.631 µM

Question: `C=CCC1(CC(=C)Br)OC(N2CCC3(CC2)OCc2ccccc23)=NC1=O` (stereo not shown) [Example 63, 5-(2-Bromoprop-2-en-1-yl)-5-(prop-2-en-1-yl)-2-(1′H,3H-spiro[2-benzofuran-1,4′-piperidin]-1′-yl)-1,3-oxazol-4(5H)-one] was tested. Which Ki did it give?
Answer: 0.0126 µM
